Data on one molecule can be found in publication PMC12041525, “Mechanistic studies of mycobacterial glycolipid biosynthesis by the mannosyltransferase PimE” (Nature Communications, 2025).

For this experiment, the target named is T1, MaPimE (Mycobacteroides abscessus, UniProt A0ABD7HTP3).
T1 construct: gene D2E76_03800; full-length WT, His-tagged, pNYCOMPSC23, E. coli BL21(DE3) pLysS; membrane fraction (kinetics) or DDM-purified in MSP1E3D1/POPC nanodiscs with Fab-E6 (cryo-EM); 46 kDa
Description: cryo-EM structure of the complex, […] Å. Conditions: nanodisc, Fab-E6 bound; formed from added PPM; only first three prenyl units resolved. The class given is binding.

T1 sequence (A0ABD7HTP3 entry or part of it): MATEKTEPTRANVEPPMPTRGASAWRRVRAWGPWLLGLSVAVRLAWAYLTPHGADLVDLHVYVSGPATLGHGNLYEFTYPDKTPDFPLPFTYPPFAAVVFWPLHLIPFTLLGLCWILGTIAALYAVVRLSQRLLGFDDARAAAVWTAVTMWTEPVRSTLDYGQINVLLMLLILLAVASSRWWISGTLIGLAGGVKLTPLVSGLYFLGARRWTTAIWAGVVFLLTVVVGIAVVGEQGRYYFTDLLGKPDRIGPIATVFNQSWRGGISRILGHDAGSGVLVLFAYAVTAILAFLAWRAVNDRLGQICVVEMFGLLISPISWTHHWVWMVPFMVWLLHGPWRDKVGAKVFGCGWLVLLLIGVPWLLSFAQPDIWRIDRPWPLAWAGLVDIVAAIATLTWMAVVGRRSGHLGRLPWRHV

Regarding `CC(C)=CCC/C(C)=C/CC/C(C)=C\CC/C(C)=C\CC/C(C)=C\CC/C(C)=C\CC/C(C)=C\CC/C(C)=C\CC/C(C)=C\CC/C(C)=C\COP(=O)(O)O` [PP, polyprenyl phosphate], the “cryo-EM structure of the complex, 3.5 Å” value is on record as “led us to interpret it as the PP portion of the PPM donor”.
